Experimental data taken from ChEMBL document CHEMBL1201862, “PubChem BioAssay data set” (2004).
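A five-concentration, 48-hour dose response in 96-well plates underlies each endpoint, interpolated linearly between surrounding concentrations. GI50 = concentration required for 50% inhibition of growth.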 Activity calls are given as the source filed them. Cut-off read from the data, not from the text of the source: active = GI50 up to about 1.1 µM and inactive = higher.

How the values were obtained:
Assay in all cases: DTP human tumour cell line panel, 48 h
786-0 = tested on: 786-0
A498 = tested on: A498
A549 = tested on: A549
ACHN = tested on: ACHN
CAKI-1 = tested on: CAKI-1
CCRF-CEM = tested on: CCRF-CEM
COLO 205 = tested on: COLO 205
DLD-1 = tested on: DLD-1
DMS-114 = tested on: DMS-114
DMS-273 = tested on: DMS-273
EKVX = tested on: EKVX
HCC 2998 = tested on: HCC 2998
HCT-116 = tested on: HCT-116
HL-60 = tested on: HL-60
HOP-18 = tested on: HOP-18
HOP-92 = tested on: HOP-92
HT-29 = tested on: HT-29
IGROV-1 = tested on: IGROV-1
K562 = tested on: K562
KM12 = tested on: KM12
LOX IMVI = tested on: LOX IMVI
M19-MEL = tested on: M19-MEL
Malme-3M = tested on: Malme-3M
NCI-H226 = tested on: NCI-H226
NCI-H23 = tested on: NCI-H23
NCI-H460 = tested on: NCI-H460
OVCAR-4 = tested on: OVCAR-4
OVCAR-5 = tested on: OVCAR-5
OVCAR-8 = tested on: OVCAR-8
SF-268 = tested on: SF-268
SF-295 = tested on: SF-295
SF-539 = tested on: SF-539
SK-MEL-28 = tested on: SK-MEL-28
SK-MEL-2 = tested on: SK-MEL-2
SK-MEL-5 = tested on: SK-MEL-5
SN12C = tested on: SN12C
SNB-75 = tested on: SNB-75
SNB-78 = tested on: SNB-78
SW-620 = tested on: SW-620
TK-10 = tested on: TK-10
UACC-257 = tested on: UACC-257
UACC-62 = tested on: UACC-62
XF498 = tested on: XF498

Measured: GI50

CC1=CCC23C(C1)OC(Br)(C=CC2(C)O)C3(C)C (stereo not drawn)
inactive: 786-0 > 100 µM | A498 > 100 µM | A549 > 100 µM | ACHN > 100 µM | CAKI-1 > 100 µM | CCRF-CEM > 100 µM | COLO 205 > 100 µM | DLD-1 > 100 µM | DMS-114 > 100 µM | DMS-273 > 100 µM | EKVX > 100 µM | HCC 2998 > 100 µM | HCT-116 > 100 µM | HL-60 > 100 µM | HOP-18 > 100 µM | HOP-92 > 100 µM | HT-29 > 100 µM | IGROV-1 > 100 µM | K562 > 100 µM | KM12 > 100 µM | LOX IMVI > 100 µM | M19-MEL > 100 µM | Malme-3M > 100 µM | NCI-H226 > 100 µM | NCI-H23 > 100 µM | NCI-H460 > 100 µM | OVCAR-4 > 100 µM | OVCAR-5 > 100 µM | OVCAR-8 > 100 µM | SF-268 > 100 µM | SF-295 > 100 µM | SF-539 > 100 µM | SK-MEL-28 > 100 µM | SK-MEL-2 > 100 µM | SK-MEL-5 > 100 µM | SN12C > 100 µM | SNB-75 > 100 µM | SNB-78 > 100 µM | SW-620 > 100 µM | TK-10 > 100 µM | UACC-257 > 100 µM | UACC-62 > 100 µM | XF498 > 100 µM
